Laboratory results from ChEMBL document CHEMBL1201862, “PubChem BioAssay data set” (2004).
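Tested at 5 concentrations; 48 h exposure; 96-well plates; endpoints linearly interpolated, else capped at highest concentration. Abbreviation: GI50, concentration required for 50% inhibition of growth.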 Activity calls are given as the source filed them. Cut-off read from the data, not from the text of the source: active = GI50 up to about 1.1 µM and inactive = higher.

Experiments:
Assay in all cases: inhibition of tumour cell growth, NCI panel, 48 h
[1] = tested on: UACC-62
[2] = tested on: NCI-H460
[3] = tested on: SF-295
[4] = tested on: NCI-H226
[5] = tested on: KM12
[6] = tested on: SK-OV-3
[7] = tested on: HOP-62
[8] = tested on: HOP-92
[9] = tested on: A498
[10] = tested on: NCI-H23
[11] = tested on: 786-0
[12] = tested on: HCT-15
[13] = tested on: K562
[14] = tested on: SK-MEL-28
[15] = tested on: U-251
[16] = tested on: CCRF-CEM
[17] = tested on: TK-10
[18] = tested on: RXF 393
[19] = tested on: SR

| Structure (SMILES) | GI50 [1] | GI50 [2] | GI50 [3] | GI50 [4] | GI50 [5] | GI50 [6] | GI50 [7] | GI50 [8] | GI50 [9] | GI50 [10] | GI50 [11] | GI50 [12] [µM] | GI50 [13] | GI50 [14] | GI50 [15] | GI50 [16] | GI50 [17] | GI50 [18] | GI50 [19] |
| --- | --- | --- | --- | --- | --- | --- | --- | --- | --- | --- | --- | --- | --- | --- | --- | --- | --- | --- | --- |
| CC(=O)c1ccc2c(ccc(=O)n2C)c1 | 93.8 µM (inactive) | > 100 µM (inactive) | > 100 µM (inactive) | > 100 µM (inactive) | > 100 µM (inactive) | > 100 µM (inactive) | > 100 µM (inactive) | > 100 µM (inactive) | > 100 µM (inactive) | > 100 µM (inactive) | > 100 µM (inactive) | > 100 | > 100 µM (inactive) | > 100 µM (inactive) | > 100 µM (inactive) | > 100 µM (inactive) | > 100 µM (inactive) |  |  |
| Cc1cc2c3c(coc3c1-c1c(C)cc3c4c(coc14)C(=O)C(O)=C3C(C)C)C(=O)C(O)=C2C(C)C | 3.73 µM (inactive) | 4.37 µM (inactive) | 5.37 µM (inactive) | 10.1 µM (inactive) | 4.3 µM (inactive) | 19.2 µM (inactive) | 11.5 µM (inactive) | 2.62 µM (inactive) | 12.2 µM (inactive) | 3.53 µM (inactive) | 10.1 µM (inactive) | 3.94 | 3.26 µM (inactive) | 10.1 µM (inactive) | 3.66 µM (inactive) | 3.58 µM (inactive) | 14.5 µM (inactive) | 10.3 µM (inactive) |  |
| Cc1cc(C=O)c2c(=O)c3c(O)ccc(/C=C/C(C)C)c3oc2c1 | 56.8 µM (inactive) | > 100 µM (inactive) | > 100 µM (inactive) | > 100 µM (inactive) | 86.9 µM (inactive) |  | > 100 µM (inactive) | 68.9 µM (inactive) |  | 46.7 µM (inactive) | 39.8 µM (inactive) | 30.5 | 39.8 µM (inactive) | 37.9 µM (inactive) | 41.1 µM (inactive) | > 10 µM (inactive) | > 100 µM (inactive) |  | 26.7 µM (inactive) |
| CC1(O)CCC2(C)C(=O)C1(C)CCC21OCCO1 (stereo unspecified) |  | > 100 µM (inactive) | > 100 µM (inactive) | > 100 µM (inactive) | > 100 µM (inactive) | > 100 µM (inactive) |  | > 100 µM (inactive) |  | > 100 µM (inactive) | > 100 µM (inactive) | > 100 | > 100 µM (inactive) | > 100 µM (inactive) | > 100 µM (inactive) | > 100 µM (inactive) | > 100 µM (inactive) | > 100 µM (inactive) | > 100 µM (inactive) |
| COC(=O)Cc1c([C@@]2(C)CCCC(C)(C)C2)ccc2c1C(=O)OC2 | 10.6 µM (inactive) | 8.83 µM (inactive) | 10.3 µM (inactive) | 11.2 µM (inactive) | 8.15 µM (inactive) | 14 µM (inactive) |  | 3.01 µM (inactive) | 25.5 µM (inactive) | 9.35 µM (inactive) | 15.7 µM (inactive) | 6.44 | 4.02 µM (inactive) | 13.1 µM (inactive) | 13.3 µM (inactive) | 6.49 µM (inactive) | 17.9 µM (inactive) | 10.4 µM (inactive) |  |
| CN(C)/C(N)=N\C#N | > 100 µM (inactive) | > 100 µM (inactive) | > 100 µM (inactive) | > 100 µM (inactive) | > 100 µM (inactive) | > 100 µM (inactive) | > 100 µM (inactive) | > 100 µM (inactive) | > 100 µM (inactive) | > 100 µM (inactive) | > 100 µM (inactive) | 18.9 | > 100 µM (inactive) | > 100 µM (inactive) | > 100 µM (inactive) |  | > 100 µM (inactive) | 17.5 µM (inactive) |  |
| O=[N+]([O-])c1ccc(C[P+]2(c3ccccc3)CCCCC2)cc1.[O-][Cl+3]([O-])([O-])[O-] | > 100 µM (inactive) | > 100 µM (inactive) | > 100 µM (inactive) | > 100 µM (inactive) | > 100 µM (inactive) | > 100 µM (inactive) | > 100 µM (inactive) |  | > 100 µM (inactive) | > 100 µM (inactive) | > 100 µM (inactive) | 72.1 | > 100 µM (inactive) | > 100 µM (inactive) | > 100 µM (inactive) | > 100 µM (inactive) | > 100 µM (inactive) | > 100 µM (inactive) | > 100 µM (inactive) |
| N#C/C(=C(/S)Nc1ccccc1)c1nc2ccccc2[nH]1 | > 10 µM (inactive) | > 10 µM (inactive) |  | > 10 µM (inactive) | > 10 µM (inactive) | 0.634 µM (active) | > 10 µM (inactive) | > 10 µM (inactive) | > 10 µM (inactive) | > 10 µM (inactive) | > 10 µM (inactive) | > 10 | > 10 µM (inactive) | > 10 µM (inactive) | > 10 µM (inactive) | > 10 µM (inactive) | > 10 µM (inactive) |  | > 10 µM (inactive) |
